Data as given in PubChem BioAssay (NCI).
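Where inhibition never reached the appropriate level, the endpoint shown equals the highest concentration tested. Otherwise, values were interpolated linearly from a five-concentration, 48-hour dose response in 96-well plates. TGI is the concentration that stops growth completely.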

What was measured:
Assay in all cases: inhibition of tumour cell growth, NCI panel, 48 h
[1] = test system: 786-0 renal
[2] = test system: A498 renal
[3] = test system: A549 NSCLC
[4] = test system: ACHN renal
[5] = test system: BT-549 breast
[6] = test system: CAKI-1 renal
[7] = test system: CCRF-CEM leukemia
[8] = test system: DU-145 prostate
[9] = test system: EKVX NSCLC
[10] = test system: HCC-2998 colon
[11] = test system: HCT-116 colon
[12] = test system: HCT-15 colon
[13] = test system: HL-60(TB) leukemia
[14] = test system: HOP-62 NSCLC
[15] = test system: HOP-92 NSCLC
[16] = test system: HS 578T breast
[17] = test system: IGROV1 ovarian
[18] = test system: K-562 leukemia
[19] = test system: KM12 colon
[20] = test system: LOX IMVI melanoma
[21] = test system: M14 melanoma
[22] = test system: MALME-3M melanoma
[23] = test system: MCF7 breast
[24] = test system: MDA-MB-231 breast
[25] = test system: MDA-MB-435
[26] = test system: MDA-N
[27] = test system: MOLT-4 leukemia
[28] = test system: NCI-H226 lung
[29] = test system: NCI-H23 lung
[30] = test system: NCI-H460 lung
[31] = test system: NCI-H522 lung
[32] = test system: NCI/ADR-RES ovarian
[33] = test system: OVCAR-3 ovarian
[34] = test system: OVCAR-4 ovarian
[35] = test system: OVCAR-5 ovarian
[36] = test system: OVCAR-8 ovarian
[37] = test system: PC-3 prostate
[38] = test system: RPMI-8226 leukemia
[39] = test system: RXF 393 renal
[40] = test system: SF-268 CNS
[41] = test system: SF-295 CNS
[42] = test system: SF-539 CNS
[43] = test system: SK-MEL-2 melanoma
[44] = test system: SK-MEL-28 melanoma
[45] = test system: SK-MEL-5 melanoma
[46] = test system: SK-OV-3 ovarian
[47] = test system: SN12C renal
[48] = test system: SNB-19 CNS
[49] = test system: SR leukemia
[50] = test system: SW-620 colon
[51] = test system: T-47D breast
[52] = test system: TK-10 renal
[53] = test system: U251 CNS
[54] = test system: UACC-257 melanoma
[55] = test system: UACC-62 melanoma
[56] = test system: UO-31 renal
[57] = test system: COLO 205 colon
[58] = test system: HT29 colon
[59] = test system: SNB-75 CNS

For `CCOC(=O)c1sc2nc(SC)nc3c2c1NCN3c1ccc2c(c1)OCCCO2`, the TGI [1] was 26.8 µM, the TGI [2] was 45.8 µM and the TGI [3] was greater than 100 µM. It also gave a TGI [4] greater than 100 µM, a TGI [5] greater than 100 µM and a TGI [6] greater than 100 µM. It also gave a TGI [7] greater than 100 µM, a TGI [8] greater than 100 µM and a TGI [9] greater than 100 µM. The TGI [10] was greater than 100 µM, the TGI [11] was greater than 100 µM and the TGI [12] was greater than 100 µM. For the same compound, the TGI [13] was greater than 100 µM, the TGI [14] was greater than 100 µM and the TGI [15] was greater than 100 µM. It also gave a TGI [16] of 37 µM, a TGI [17] greater than 100 µM and a TGI [18] greater than 100 µM. For the same compound, the TGI [19] was greater than 100 µM, the TGI [20] was greater than 100 µM and the TGI [21] was greater than 100 µM. For the same compound, the TGI [22] was greater than 100 µM, the TGI [23] was greater than 100 µM and the TGI [24] was greater than 100 µM. It also gave a TGI [25] greater than 100 µM, a TGI [26] greater than 100 µM and a TGI [27] greater than 100 µM. It also gave a TGI [28] greater than 100 µM, a TGI [29] greater than 100 µM and a TGI [30] greater than 100 µM. It also gave a TGI [31] greater than 100 µM, a TGI [32] greater than 100 µM and a TGI [33] of 93.9 µM. The TGI [34] was greater than 100 µM, the TGI [35] was greater than 100 µM and the TGI [36] was greater than 100 µM. It also gave a TGI [37] greater than 100 µM, a TGI [38] greater than 100 µM and a TGI [39] of 35.6 µM. It also gave a TGI [40] greater than 100 µM, a TGI [41] of 5.1 µM and a TGI [42] of 53.9 µM. For the same compound, the TGI [43] was greater than 100 µM, the TGI [44] was greater than 100 µM and the TGI [45] was greater than 100 µM. For the same compound, the TGI [46] was 75.7 µM, the TGI [47] was greater than 100 µM and the TGI [48] was greater than 100 µM. The TGI [49] was greater than 100 µM, the TGI [50] was greater than 100 µM and the TGI [51] was greater than 100 µM. For the same compound, the TGI [52] was greater than 100 µM, the TGI [53] was 57.7 µM and the TGI [54] was greater than 100 µM. It also gave a TGI [55] greater than 100 µM and a TGI [56] greater than 100 µM.
`COC1(O)C(=O)c2ccccc2OC1(OC)c1ccccc1` (configuration not stated) gave a TGI [1] greater than 100 µM, a TGI [2] greater than 100 µM and a TGI [3] greater than 100 µM. It also gave a TGI [4] greater than 100 µM, a TGI [5] greater than 100 µM and a TGI [6] greater than 100 µM. For the same compound, the TGI [7] was greater than 100 µM, the TGI [57] was greater than 100 µM and the TGI [8] was greater than 100 µM. The TGI [9] was greater than 100 µM, the TGI [10] was greater than 100 µM and the TGI [11] was greater than 100 µM. For the same compound, the TGI [12] was greater than 100 µM, the TGI [13] was greater than 100 µM and the TGI [14] was greater than 100 µM. It also gave a TGI [15] greater than 100 µM, a TGI [16] greater than 100 µM and a TGI [58] greater than 100 µM. For the same compound, the TGI [17] was greater than 100 µM, the TGI [18] was greater than 100 µM and the TGI [20] was greater than 100 µM. The TGI [21] was greater than 100 µM, the TGI [22] was greater than 100 µM and the TGI [23] was greater than 100 µM. The TGI [24] was greater than 100 µM, the TGI [25] was greater than 100 µM and the TGI [26] was greater than 100 µM. It also gave a TGI [27] greater than 100 µM, a TGI [28] greater than 100 µM and a TGI [29] greater than 100 µM. For the same compound, the TGI [30] was greater than 100 µM, the TGI [31] was greater than 100 µM and the TGI [32] was greater than 100 µM. The TGI [33] was greater than 100 µM, the TGI [34] was greater than 100 µM and the TGI [35] was greater than 100 µM. It also gave a TGI [36] greater than 100 µM, a TGI [37] greater than 100 µM and a TGI [38] greater than 100 µM. It also gave a TGI [39] greater than 100 µM, a TGI [40] greater than 100 µM and a TGI [41] greater than 100 µM. The TGI [42] was greater than 100 µM, the TGI [43] was greater than 100 µM and the TGI [44] was greater than 100 µM. It also gave a TGI [45] greater than 100 µM, a TGI [47] greater than 100 µM and a TGI [48] greater than 100 µM. The TGI [59] was greater than 100 µM, the TGI [49] was greater than 100 µM and the TGI [50] was greater than 100 µM. It also gave a TGI [51] greater than 100 µM, a TGI [52] greater than 100 µM and a TGI [53] greater than 100 µM. The TGI [54] was greater than 100 µM and the TGI [55] was greater than 100 µM.
